The values that follow come from patent publication US12495798B2, “Nicotinamide compound and herbicidal composition comprising compound” (KOREA RESEARCH INSTITUTE OF CHEMICAL TECHNOLOGY, priority 2019, dated 2025).

Common to all, as to experiment: Herbicidal activity test against upland field weeds (foliar treatment test)
Type in all cases: in vivo

One assay concerns sorghum. More on the design: key to Foliar treatment herbicidal activity, Sorghum: 0 (no control); 100 (complete control). Conditions: 50 g ai/ha, scale 0-100; for plant injury at 50 g/ha: Sorghum. The procedure:
(§1) Experimental Example 1: Herbicidal Activity Test Against Upland Field Weeds (Foliar Treatment Test) Foliar treatment was performed as follows: After filling a square plastic pot having a surface area of 350 cm^2 with horticultural soil, seeds (10˜15 grains) or rootstocks (2 pieces) of 5 kinds of grassy weeds of sorghum, barnyard grass, quack grass, crabgrass, fall panicum, and 5 kinds of broadleaf weeds of black nightshade, indian jointvetch, velvetleaf, cocklebur, bindweed, which had been stored in a low temperature (6° C.), were sown. After growing for a certain period in greenhouse conditions (average temperature 30±5° C., light/dark=14/10 hours), test compound solutions were made by diluting with a preparation solution (including 50% acetone, 0.1% Tween-20) so that the final treatment amount of the test compounds was 50 or 75 g a.i./ha. The prepared test compound solution was used for treating foliage by hand-spraying 14 mL per pot in a fume hood. After the treatment, it was managed under the same greenhouse conditions as above, and after 14 days (after 21 days if necessary), the external symptoms and efficacy were investigated according to the scale of 0 (no control) to 100 (complete control). The results of Table 7 were obtained by evaluating weed control value to the untreated control by conducting visual assessment.

A further assay deals with barnyard grass. Also noted: key to Foliar treatment herbicidal activity, barnyard grass: 0 (no control); 100 (complete control). The following applies: 50 g ai/ha, scale 0-100; for pest or weed control at 50 g/ha: Echinochloa crus-galli. The procedure:
as §1

The next assay has as its system quack grass. Also noted: key to Foliar treatment herbicidal activity, quack grass: 0 (no control); 100 (complete control). The following applies: 50 g ai/ha, scale 0-100. The procedure:
as §1

Another assay has as its system crabgrass. More on the design: key to Foliar treatment herbicidal activity, Crabgrass: 0 (no control); 100 (complete control). Conditions: 50 g ai/ha, scale 0-100; for pest or weed control at 50 g/ha: Digitaria sanguinalis. The protocol:
as §1

Another assay concerns fall panicum. Also noted: key to Foliar treatment herbicidal activity, Fall panicum: 0 (no control); 100 (complete control). The following applies: 50 g ai/ha, scale 0-100; for pest or weed control at 50 g/ha: Panicum dichotomiflorum. The protocol:
as §1

A further assay has as its system black nightshade. More on the design: key to Foliar treatment herbicidal activity, black nightshade: 0 (no control); 100 (complete control). Conditions: 50 g ai/ha, scale 0-100; for pest or weed control at 50 g/ha: Solanum nigrum. The procedure:
as §1

The next assay has as its system indian jointvetch. Also noted: key to Foliar treatment herbicidal activity, Indian jointvetch: 0 (no control); 100 (complete control). The following applies: 50 g ai/ha, scale 0-100. The procedure: as §1
Another assay deals with velvetleaf. More on the design: key to Foliar treatment herbicidal activity, velvet leaf: 0 (no control); 100 (complete control). Conditions: 50 g ai/ha; for pest or weed control at 50 g/ha: Abutilon theophrasti, scale 0-100, read-out: Foliar treatment herbicidal activity, velvet leaf. The protocol: as §1
The next assay concerns cocklebur. Also noted: key to Foliar treatment herbicidal activity, Cocklebur: 0 (no control); 100 (complete control). Conditions: 50 g ai/ha, scale 0-100; for pest or weed control at 50 g/ha: Xanthium strumarium. The procedure:
as §1

Another assay has as its system bindweed. More on the design: key to Foliar treatment herbicidal activity, Bindweed: 0 (no control); 100 (complete control). Conditions: 50 g ai/ha, scale 0-100. The protocol: as §1

Molecules are shown by their SMILES.

For the compound `Cn1nnnc1NC(=O)c1ccc(C(F)(F)F)nc1COc1nnnn1C` [Compound No. 1-115, N-(1-methyl-1H-tetrazol-5-yl)-2-(((1-methyl-1H-tetrazol-5-yl)oxy)methyl)-6-(trifluoromethyl)nicotinamide], the “Foliar treatment herbicidal activity, Sorghum” value in the assay with sorghum is reported as 0. Moreover, the pest or weed control at 50 g/ha in the assay with barnyard grass turned out to be 30%; with black nightshade it was 95%; in the assay with indian jointvetch, 40%; in the assay with velvetleaf it was 40%; with cocklebur, 80%; in the assay with bindweed it was 80%. The “Foliar treatment herbicidal activity, quack grass” value in the assay with quack grass was determined as 0. The “Foliar treatment herbicidal activity, Crabgrass” value with crabgrass is recorded as 0. The “Foliar treatment herbicidal activity, Fall panicum” value with fall panicum is recorded as 0.

On to `Cn1nnc(CNc2nc(C(F)(F)F)ccc2C(=O)Nc2nnnn2C)n1` [Compound No. 2-32, N-(1-methyl-1H-tetrazol-5-yl)-2-(((2-methyl-2H-tetrazol-5-yl)methyl)amino)-6-(trifluoromethyl)nicotinamide], for which, in the assay on sorghum, the “Foliar treatment herbicidal activity, Sorghum” value is listed as 0. Moreover, the “Foliar treatment herbicidal activity, barnyard grass” value in the assay with barnyard grass is 0. Besides, the “Foliar treatment herbicidal activity, quack grass” value in the assay with quack grass worked out at 0. Moreover, the “Foliar treatment herbicidal activity, Crabgrass” value in the assay on crabgrass turned out to be 0. In addition, the “Foliar treatment herbicidal activity, Fall panicum” value in the assay on fall panicum came out at 0. The compound further had a pest or weed control at 50 g/ha with black nightshade of 40%. Further, the “Foliar treatment herbicidal activity, Indian jointvetch” value in the assay on indian jointvetch is 0. For the same compound, in the assay on velvetleaf (scale 0-100), the “Foliar treatment herbicidal activity, velvet leaf” value is reported as 0. For the same compound, in the assay with cocklebur, the “Foliar treatment herbicidal activity, Cocklebur” value was determined as 0. Further, the “Foliar treatment herbicidal activity, Bindweed” value in the assay with bindweed is 0.

For `Cn1nnnc1NC(=O)c1ccc(C(F)(F)F)nc1COCc1nnn(C(F)F)n1` [Compound No. 2-92, 2-(((2-(difluoromethyl)-2H-tetrazol-5-yl)methoxy)methyl)-N-(1-methyl-1H-tetrazol-5-yl)-6-(trifluoromethyl)nicotinamide], the “Foliar treatment herbicidal activity, Sorghum” value in the assay on sorghum is 0. Further, in the assay with barnyard grass, the “Foliar treatment herbicidal activity, barnyard grass” value was 0. Further, the “Foliar treatment herbicidal activity, quack grass” value in the assay with quack grass came to 0. The pest or weed control at 50 g/ha in the assay with crabgrass was 20%; in the assay with fall panicum, 40%; in the assay on indian jointvetch it was 70%; with velvetleaf, 80%; in the assay with cocklebur, 70%; with bindweed it was 70%. In the assay with black nightshade, the “Foliar treatment herbicidal activity, black nightshade” value was 100.

With `CN(Cc1nnn(C)n1)Cc1nc(C(F)(F)F)ccc1C(=O)Nc1nnnn1C` [Compound No. 2-93, 2-((methyl((2-methyl-2H-tetrazol-5-yl)methyl)amino)methyl)-N-(1-methyl-1H-tetrazol-5-yl)-6-(trifluoromethyl)nicotinamide], the plant injury (as a rule, how far the test organism was held down) at 50 g/ha in the assay on sorghum was 20%. Besides, the pest or weed control at 50 g/ha in the assay on barnyard grass stood at 20%; with crabgrass, 40%; in the assay on fall panicum, 30%; in the assay on indian jointvetch, 70%; in the assay with velvetleaf, 80%; in the assay with cocklebur, 95%. In addition, the pest or weed control at 50 g/ha in the assay on bindweed stood at 50%. In addition, the “Foliar treatment herbicidal activity, quack grass” value with quack grass came to 0. In addition, the “Foliar treatment herbicidal activity, black nightshade” value in the assay with black nightshade came out at 100.

As to `CCN(Cc1nnn(C)n1)Cc1nc(C(F)(F)F)ccc1C(=O)Nc1nnnn1C` [Compound No. 2-94, 2-((ethyl((2-methyl-2H-tetrazol-5-yl)methyl)amino)methyl)-N-(1-methyl-1H-tetrazol-5-yl)-6-(trifluoromethyl)nicotinamide], in the assay with sorghum, the “Foliar treatment herbicidal activity, Sorghum” value is given as 0. Moreover, the “Foliar treatment herbicidal activity, barnyard grass” value in the assay with barnyard grass is reported as 0. Also, in the assay with quack grass, the “Foliar treatment herbicidal activity, quack grass” value was 0. Further, in the assay with crabgrass, the “Foliar treatment herbicidal activity, Crabgrass” value is given as 0. Moreover, the “Foliar treatment herbicidal activity, Fall panicum” value in the assay on fall panicum stood at 0. In addition, in the assay on black nightshade, the “Foliar treatment herbicidal activity, black nightshade” value is 100. For the same compound, the pest or weed control at 50 g/ha in the assay on indian jointvetch turned out to be 60%; in the assay with velvetleaf it was 60%; in the assay with cocklebur it was 60%; in the assay with bindweed it was 30%.

Compound `Cn1nnnc1NC(=O)c1ccc(C(F)(F)F)nc1COCc1nc(OCC(F)(F)F)n(C)n1` [Compound No. 2-130, N-(1-methyl-1H-tetrazol-5-yl)-2-(((1-methyl-5-(2,2,2-trifluoroethoxy)-1H-1,2,4-triazol-3-yl)methoxy)methyl)-6-(trifluoromethyl)nicotinamide] showed a plant injury at 50 g/ha with sorghum of 30%. Besides, the pest or weed control at 50 g/ha in the assay with barnyard grass is 95%; in the assay with crabgrass, 90%; in the assay on fall panicum, 70%; with black nightshade it was 98%; with indian jointvetch, 60%; in the assay on velvetleaf, 50%. Besides, the pest or weed control at 50 g/ha turned out to be 60% with cocklebur and 70% in the assay with bindweed. The “Foliar treatment herbicidal activity, quack grass” value in the assay on quack grass amounted to 0.

Compound `CN(C)c1nc(COCc2nc(C(F)(F)F)ccc2C(=O)Nc2nnnn2C)nn1C` [Compound No. 2-133, 2-(((5-(dimethylamino)-1-methyl-1H-1,2,4-triazol-3-yl)methoxy)methyl)-N-(1-methyl-1H-tetrazol-5-yl)-6-(trifluoromethyl)nicotinamide] displayed a plant injury at 50 g/ha in the assay with sorghum of 20%. Besides, the pest or weed control at 50 g/ha stood at 90% in the assay with barnyard grass; 98% in the assay with crabgrass; 80% with fall panicum; 95% in the assay with indian jointvetch; 80% in the assay on velvetleaf; 95% with cocklebur. The pest or weed control at 50 g/ha with bindweed stood at 90%. In the assay with quack grass, the “Foliar treatment herbicidal activity, quack grass” value was 0. In the assay with black nightshade, the “Foliar treatment herbicidal activity, black nightshade” value was 100.
